What was measured:
Test in all cases: In vivo antimicrobial activity in experimentally infected mice (ED50)
[1] = test system: Streptococcus pyogenes; conditions: for ED50 Value Streptococcus pyogenes: mg/kg × 2, doses administered subcutaneously to mice 1 and 4 hours postinfection, dose protecting 50% of animals
Experimental: (§1) The A82846 antibiotics have shown in vivo antimicrobial activity against experimentally-induced infections in laboratory animals. When two doses of test compound were administered to mice experimentally infected with the test organism, the activity observed was measured as an ED50 value [effective dose in mg/kg to protect 50% of the test animals: see Warren Wick, et al., J. Bacteriol. 81, 233-235 (1961)].
(§2) ^a mg/kg × 2; doses administered subcutaneously to mice 1 and 4

[2] = test system: Staphylococcus aureus; conditions: for ED50 Value Staphylococcus aureus: mg/kg × 2, doses administered subcutaneously to mice 1 and 4 hours postinfection, dose protecting 50% of animals
Experimental: as §1, §2

[3] = test system: Streptococcus pneumoniae; conditions: for ED50 Value Streptococcus pneumoniae: mg/kg × 2, doses administered subcutaneously to mice 1 and 4 hours postinfection, dose protecting 50% of animals
Experimental: as §1, §2

| SMILES | ED50 Value Streptococcus pyogenes [1] | ED50 Value Staphylococcus aureus [2] | ED50 Value Streptococcus pneumoniae [3] | ED50 ([1]; Streptococcus pyogenes, sc, read-out: ED50 Value Streptococcus pyogenes) | ED50 ([2]; Staphylococcus aureus, sc, read-out: ED50 Value Staphylococcus aureus) | ED50 ([3]; Streptococcus pneumoniae, sc, read-out: ED50 Value Streptococcus pneumoniae) |
| --- | --- | --- | --- | --- | --- | --- |
| CN[C@H](CC(C)C)C(=O)N[C@H]1C(=O)N[C@@H](CC(N)=O)C(=O)N[C@H]2C(=O)N[C@H]3C(=O)N[C@H](C(=O)N[C@@H](C(=O)O)c4cc(O)cc(O)c4-c4cc3ccc4O)[C@H](O[C@@H]3C[C@@](C)(N)[C@H](O)[C@@H](C)O3)c3ccc(cc3)Oc3cc2cc(c3O[C@H]2O[C@@H](CO)[C@H](O)[C@@H](O)[C@@H]2O[C@H]2C[C@](C)(N)[C@@H](O)[C@H](C)O2)Oc2ccc(cc2Cl)[C@H]1O [Compound A82846A] | 0.19 mg/kg | 0.19 mg/kg | 0.17 mg/kg |  |  |  |
| CN[C@H](CC(C)C)C(=O)N[C@H]1C(=O)N[C@@H](CC(N)=O)C(=O)N[C@H]2C(=O)N[C@H]3C(=O)N[C@H](C(=O)N[C@H](C(=O)O)c4cc(O)cc(O)c4-c4cc3ccc4O)[C@H](O[C@H]3C[C@](C)(N)[C@@H](O)[C@H](C)O3)c3ccc(c(Cl)c3)Oc3cc2cc(c3O[C@@H]2O[C@H](CO)[C@@H](O)[C@H](O)[C@H]2O[C@H]2C[C@](C)(N)[C@@H](O)[C@H](C)O2)Oc2ccc(cc2Cl)[C@H]1O [Compound A82846B] | 0.20 mg/kg | 0.19 mg/kg | 0.18 mg/kg |  |  |  |
| CN[C@@H](CC(C)C)C(=O)N[C@H]1C(=O)N[C@H](CC(N)=O)C(=O)N[C@H]2C(=O)N[C@H]3C(=O)N[C@@H](C(=O)NC(C(=O)O)c4cc(O)cc(O)c4-c4cc3ccc4O)[C@@H](O[C@H]3C[C@](C)(N)[C@H](O)[C@@H](C)O3)c3ccc(cc3)Oc3cc2cc(c3O[C@H]2O[C@@H](CO)[C@@H](O)[C@H](O)[C@@H]2O[C@H]2C[C@](C)(N)[C@H](O)[C@@H](C)O2)Oc2ccc(cc2)[C@@H]1O (stereo partly drawn) [Compound A82846C] | 2.71 mg/kg | 2.18 mg/kg | 5.87 mg/kg |  |  |  |
| CN[C@H](CC(C)C)C(=O)N[C@H]1C(=O)N[C@@H](CC(N)=O)C(=O)N[C@H]2C(=O)N[C@H]3C(=O)N[C@H](C(=O)N[C@H](C(=O)O)c4cc(O)cc(O)c4-c4cc3ccc4O)[C@H](O)c3ccc(c(Cl)c3)Oc3cc2cc(c3O[C@@H]2O[C@H](CO)[C@@H](O)[C@H](O)[C@H]2O[C@H]2C[C@](C)(N)[C@H](O)[C@H](C)O2)Oc2ccc(cc2Cl)[C@H]1O [Vancomycin, vancomycin, reference compound] |  |  |  | 0.72 mg/kg | 1.3 mg/kg | 1.52 mg/kg |

Source: patent US4845194A, “Glycopeptide recovery process” (Eli Lilly and Company, priority 1987, dated 1989)
